Results published in patent US20230146455A1, “TREATMENT OF INFLAMMATORY DISEASES WITH PEPTIDES AND PHARMACEUTICAL COMPOSITIONS” (Yuyu Pharma, Inc., priority 2020, published 2023).
“And” between values parts separate entries of the source, which are not always exact repeats. Equal entries are not always repeated. Where a SMILES comes first, the peptide text is derived from it. [ ]: non-standard residue; d: D form. Hyp = O=C(O)[C@@H]1C[C@@H](O)CN1

System: CCL20/MIP-3 alpha
Assay: Example 9 Luminex, LPS hPBMCs: CCL20/MIP-3 alpha
Type: cell-based, human
Procedure: Treatment Human PBMCs were pretreated with YY-101, YDE-011 and YDE-043 or reference compound; Xiidra® at various concentration (ranging from 1 nM to 100 uM) for 2 h before stimulation. An equal volume of 0.5% DMSO was used as a vehicle control. Then, the cells were treated with LPS at 5 ug/ml. The supernatants from treated cells were harvested at 24 h and placed in a 96 well for Luminex cytokine & chemokine profiling using a Luminex 200 multiplex assay (Luminex; R&D system, USA).
The main study arm with triplicate wells per group in a 24-well plate: • 1. Blank • 2. PBMC: 0.5% DMSO • 3. PBMC+LPS (5 ug/ml) • 4. PBMC+YY-101 100 uM • 5. PBMC+YY-101 10 uM • 6. PBMC+YY-101 1 uM • 7. PBMC+YY-101 0.1 uM • 8. PBMC+YY-101 0.01 uM • 9. PBMC+LPS (5 ug/ml)+Xiidra®100 uM • 10. PBMC+LPS (5 ug/ml)+Xiidra® 10 uM • 11. PBMC+LPS (5 ug/ml)+Xiidra® 1 uM • 12. PBMC+LPS (5 ug/ml)+Xiidra®0.1 uM • 13. PBMC+LPS (5 ug/ml)+Xiidra®0.01 uM • 14. PBMC+LPS (5 ug/ml)+Xiidra®0.001 uM • 15. PBMC+LPS (5 ug/ml)+YY-101 100 uM • 16. PBMC+LPS (5 ug/ml)+YY-101 10 uM • 17. PBMC+LPS (5 ug/ml)+YY-101 1 uM • 18. PBMC+LPS (5 ug/ml)+YY-101 0.1 uM • 19. PBMC+LPS (5 ug/ml)+YY-101 0.01 uM • 20. PBMC+LPS (5 ug/ml)+YY-101 0.001 uM • 21. PBMC+LPS (5 ug/ml)+YDE-011 100 uM • 22. PBMC+LPS (5 ug/ml)+YDE-011 10 uM • 23. PBMC+LPS (5 ug/ml)+YDE-011 1 uM • 24. PBMC+LPS (5 ug/ml)+YDE-011 0.1 uM • 25. PBMC+LPS (5 ug/ml)+YDE-011 0.01 uM • 26. PBMC+LPS (5 ug/ml)+YDE-011 0.001 uM • 27. PBMC+LPS (5 ug/ml)+YDE-043 100 uM • 28. PBMC+LPS (5 ug/ml)+YDE-043 10 uM • 29. PBMC+LPS (5 ug/ml)+YDE-043 1 uM • 30. PBMC+LPS (5 ug/ml)+YDE-043 0.1 uM • 31. PBMC+LPS (5 ug/ml)+YDE-043 0.01 uM • 32. PBMC+LPS (5 ug/ml)+YDE-043 0.001 uM
Multiplex assay was used to measure 30 cytokines and chemokines. The 1:2, 1:10 and 1:200 diluted cell supernatant and serial dilution of the standard were dispensed into a 96 well plate at 50 ul/well. Then, the pre-mixed cocktail of antibody-coated magnetic beads was dispensed at 50 ul/well and incubated at room temperature for 2 h in a horizontal orbital microplate shaker at 800±500 rpm. The beads were washed using a magnetic device to prevent loss. The biotin-antibody was dispensed in 50 ul of each well and incubated at room temperature for 1 h in a shaker at 800±500 rpm. After washing, streptavidin-PE was added at 50 ul/well and incubated at room temperature for 30 min in a shaker under the same conditions. Finally, after washing, wash buffer (100 ul/well) was added to the plate and incubated in a shaker for 2 min. The Luminex™ 200 setting were set according to the manufacturer's protocol. The data was calculated with a standard five-parameter logistic nonlinear regression analysis of the data (xPonent software 4.2, USA). The levels of cytokine/chemokine are normalized to the live cell counts (1×10^5 cells/mL) and presented as concentrations per mL (pg/mL or ng/mL).

[1] = PBMC + LPS(5 ug/ml) + test article 0.001 uM, Mean
[2] = PBMC + LPS(5 ug/ml) + test article 0.001 uM, individual replicate
[3] = PBMC + LPS(5 ug/ml) + test article 0.01 uM, Mean
[4] = PBMC + LPS(5 ug/ml) + test article 0.01 uM, individual replicate
[5] = PBMC + LPS(5 ug/ml) + test article 0.1 uM, Mean
[6] = PBMC + LPS(5 ug/ml) + test article 0.1 uM, individual replicate
[7] = PBMC + LPS(5 ug/ml) + test article 1 uM, Mean
[8] = PBMC + LPS(5 ug/ml) + test article 1 uM, individual replicate
[9] = PBMC + LPS(5 ug/ml) + test article 10 uM, Mean
[10] = PBMC + LPS(5 ug/ml) + test article 10 uM, individual replicate
[11] = PBMC + LPS(5 ug/ml) + test article 100 uM, Mean
[12] = PBMC + LPS(5 ug/ml) + test article 100 uM, individual replicate
[13] = PBMC + test article 0.01 uM, no LPS, Mean
[14] = PBMC + test article 0.01 uM, no LPS, individual replicate
[15] = PBMC + test article 0.1 uM, no LPS, Mean
[16] = PBMC + test article 0.1 uM, no LPS, individual replicate
[17] = PBMC + test article 1 uM, no LPS, Mean
[18] = PBMC + test article 1 uM, no LPS, individual replicate
[19] = PBMC + test article 10 uM, no LPS, Mean
[20] = PBMC + test article 10 uM, no LPS, individual replicate
[21] = PBMC + test article 100 uM, no LPS, Mean
[22] = PBMC + test article 100 uM, no LPS, individual replicate

CC(C)C[C@H](NC(=O)CNC(=O)[C@H](CC(=O)O)NC(=O)[C@H](CCC(N)=O)NC(=O)CNC(=O)[C@@H]1C[C@@H](O)CN1)C(=O)N[C@@H](C)C(=O)NCC(=O)N1CCC[C@H]1C(=O)N[C@@H](CCCCN)C(=O)O [YY-101] (H-[Hyp]GQDGLAGPK-OH; N-terminus and C-terminus assumed)
Concentration, CCL20/MIP-3 alpha [1]: 315.3 pg/mL
MFI, CCL20/MIP-3 alpha [1]: 346.7
conc/live cell, CCL20/MIP-3 alpha [1]: 49.1 pg/10^5
Concentration, CCL20/MIP-3 alpha [2]: 301.0 pg/mL and 289.9 pg/mL and 355.1 pg/mL
MFI, CCL20/MIP-3 alpha [2]: 329.0 and 315.5 and 395.5
conc/live cell, CCL20/MIP-3 alpha [2]: 52.8 pg/10^5 and 40.8 pg/10^5 and 53.8 pg/10^5
Concentration, CCL20/MIP-3 alpha [3]: 377.7 pg/mL
MFI, CCL20/MIP-3 alpha [3]: 423.7
conc/live cell, CCL20/MIP-3 alpha [3]: 61.2 pg/10^5
Concentration, CCL20/MIP-3 alpha [4]: 383.7 pg/mL and 338.9 pg/mL and 410.6 pg/mL
MFI, CCL20/MIP-3 alpha [4]: 431.0 and 375.5 and 464.5
conc/live cell, CCL20/MIP-3 alpha [4]: 60.0 pg/10^5 and 56.5 pg/10^5 and 67.3 pg/10^5
Concentration, CCL20/MIP-3 alpha [5]: 364.1 pg/mL
MFI, CCL20/MIP-3 alpha [5]: 406.7
conc/live cell, CCL20/MIP-3 alpha [5]: 62.5 pg/10^5
Concentration, CCL20/MIP-3 alpha [6]: 378.5 pg/mL and 364.4 pg/mL and 349.4 pg/mL
MFI, CCL20/MIP-3 alpha [6]: 424.5 and 407.0 and 388.5
conc/live cell, CCL20/MIP-3 alpha [6]: 61.0 pg/10^5 and 70.1 pg/10^5 and 56.4 pg/10^5
Concentration, CCL20/MIP-3 alpha [7]: 338.5 pg/mL
MFI, CCL20/MIP-3 alpha [7]: 375.0
conc/live cell, CCL20/MIP-3 alpha [7]: 52.1 pg/10^5
Concentration, CCL20/MIP-3 alpha [8]: 323.0 pg/mL and 330.0 pg/mL and 362.4 pg/mL
MFI, CCL20/MIP-3 alpha [8]: 356.0 and 364.5 and 404.5
conc/live cell, CCL20/MIP-3 alpha [8]: 51.3 pg/10^5 and 46.5 pg/10^5 and 58.4 pg/10^5
Concentration, CCL20/MIP-3 alpha [9]: 368.2 pg/mL
MFI, CCL20/MIP-3 alpha [9]: 411.8
conc/live cell, CCL20/MIP-3 alpha [9]: 55.3 pg/10^5
Concentration, CCL20/MIP-3 alpha [10]: 324.3 pg/mL and 377.7 pg/mL and 402.6 pg/mL
MFI, CCL20/MIP-3 alpha [10]: 357.5 and 423.5 and 454.5
conc/live cell, CCL20/MIP-3 alpha [10]: 54.0 pg/10^5 and 59.0 pg/10^5 and 53.0 pg/10^5
Concentration, CCL20/MIP-3 alpha [11]: 578.6 pg/mL
MFI, CCL20/MIP-3 alpha [11]: 677.7
conc/live cell, CCL20/MIP-3 alpha [11]: 100.0 pg/10^5
Concentration, CCL20/MIP-3 alpha [12]: 590.1 pg/mL and 591.7 pg/mL and 553.9 pg/mL
MFI, CCL20/MIP-3 alpha [12]: 692.5 and 694.5 and 646.0
conc/live cell, CCL20/MIP-3 alpha [12]: 93.7 pg/10^5 and 95.4 pg/10^5 and 110.8 pg/10^5
Concentration, CCL20/MIP-3 alpha [13]: 12.1 pg/mL
MFI, CCL20/MIP-3 alpha [13]: 11.0
conc/live cell, CCL20/MIP-3 alpha [13]: 2.5 pg/10^5
Concentration, CCL20/MIP-3 alpha [14]: 7.3 pg/mL and 16.8 pg/mL
MFI, CCL20/MIP-3 alpha [14]: 7.5 and 14.5
conc/live cell, CCL20/MIP-3 alpha [14]: 1.4 pg/10^5 and 3.5 pg/10^5
Concentration, CCL20/MIP-3 alpha [15]: 9.5 pg/mL
MFI, CCL20/MIP-3 alpha [15]: 9.0
conc/live cell, CCL20/MIP-3 alpha [15]: 1.8 pg/10^5
Concentration, CCL20/MIP-3 alpha [16]: 7.3 pg/mL and 11.6 pg/mL
MFI, CCL20/MIP-3 alpha [16]: 7.5 and 10.5
conc/live cell, CCL20/MIP-3 alpha [16]: 1.7 pg/10^5 and 2.0 pg/10^5
Concentration, CCL20/MIP-3 alpha [17]: 8.8 pg/mL
MFI, CCL20/MIP-3 alpha [17]: 8.5
conc/live cell, CCL20/MIP-3 alpha [17]: 1.6 pg/10^5
Concentration, CCL20/MIP-3 alpha [18]: 7.3 pg/mL and 10.2 pg/mL
MFI, CCL20/MIP-3 alpha [18]: 7.5 and 9.5
conc/live cell, CCL20/MIP-3 alpha [18]: 1.3 pg/10^5 and 1.9 pg/10^5
Concentration, CCL20/MIP-3 alpha [19]: 41.3 pg/mL
MFI, CCL20/MIP-3 alpha [19]: 36.5
conc/live cell, CCL20/MIP-3 alpha [19]: 6.6 pg/10^5
Concentration, CCL20/MIP-3 alpha [20]: 57.4 pg/mL and 25.3 pg/mL
MFI, CCL20/MIP-3 alpha [20]: 51.5 and 21.5
conc/live cell, CCL20/MIP-3 alpha [20]: 9.0 pg/10^5 and 4.1 pg/10^5
Concentration, CCL20/MIP-3 alpha [21]: 22.4 pg/mL
MFI, CCL20/MIP-3 alpha [21]: 19.3
conc/live cell, CCL20/MIP-3 alpha [21]: 3.4 pg/10^5
Concentration, CCL20/MIP-3 alpha [22]: 29.8 pg/mL and 14.9 pg/mL
MFI, CCL20/MIP-3 alpha [22]: 25.5 and 13.0
conc/live cell, CCL20/MIP-3 alpha [22]: 4.7 pg/10^5 and 2.1 pg/10^5
LPS-induced CCL20 levels (in words) (at 100.iM, LPS 5 ug/mL 24 hrs): further increased
